Test results as given in patent publication US7618790B2, “Method for NGF assay for in vitro diagnosis of breast cancer and therapeutic use” (Biomerieux, priority 2002, dated 2009).

Legend:
PC12 cells = assay: Coculture of NGF-sensitive PC12 cells with MCF-7 breast cancer cells (neurite differentiation); assay type: cell-based
Description: To do this, cells which develop in the presence of NGF, i.e. PC12 cells, were cocultured with MCF-7 breast cancer cells, as described in point 1.1 above, or else with NBEC cells, as described in point 1.1 above, as a control.
The PC12 cells were cultured beforehand at 37° C. in a 5% CO2 atmosphere, in Dulbecco's modified minimum essential medium (DMEM) supplemented with 3 g/l of sodium bicarbonate, 4 mM of L-glutamine, 10% of fetal calf serum, 5% of horse serum and 100 units/ml of penicillin/streptomycin.
The coculturing was carried out with Transwell® tissue culture-treated polycarbonate plates (12 mm in diameter and 12 μm pore size). An initial equilibrating period was observed by adding the media to the central well of the plate, and then to the Transwell® insert, which operation was followed by incubation at 37° C. for 3 h.
The PC12 cells were seeded in 12-well plates coated with collagen for 24 h in order to ensure correct attachment to the culture plates. The MCF-7 or NCBE cells were seeded inside the Transwell® insert, corresponding to the upper compartment, in the complete medium for 24 h. After this time, each cell line was rinsed three times with serum-free medium and was incubated in a withdrawal medium. […] The percentage of cells bearing neurites, defined as cells with one or more neurite extensions twice the length of the cell body, was counted. […]

MCF-7 cells = assay: Growth of MCF-7 cancer cells (cell count with hemocytometer); assay type: cell-based, human; conditions: serum-free basic medium, 24-72 h, FIG. 4A
Description: The effect of the blocking antibody MAB-256 (above) and of the inhibitor K-252a on the growth of MCF-7 cells was studied. To do this, the cells were seeded in a proportion of 2×10^4 cells/ml in 35 mm dishes in complete medium. After having reached 40% confluency, the cells were washed twice and were left without nutrients in a serum-free medium containing fibronectin (2 μg/ml) and transferrin (30 μg/ml) for 3 h. The following hour, the medium was replaced with 2 ml of the same medium containing the inhibitor K-252a or the antibody […] at various concentrations in order to study the effect of the pharmacological inhibitor or of the blocking inhibitor on the base line growth level. After treatment for 24, 36, 48 and 72 h, the number of cells was determined, after trypsinization of the monolayer culture with a solution of 0.25% trypsin/EDTA, using a hemocytometer. An anti-mouse monoclonal antibody ([…], Sigma), i.e. an irrelevant antibody, was also used in order to determine the specificity of the blocking antibody.

| Molecule | PC12 cell differentiation (neurite development) (PC12 cells; culture of PC12 cells alone as a control, in the presence of NGF, FIG. 2B photograph 3) | PC12 cell differentiation (cells bearing neurites) (PC12 cells; coculture of MCF-7 and PC12 cells, 48 h, FIG. 2B) | growth of the MCF-7 cells (number of cells) (MCF-7 cells) |
| --- | --- | --- | --- |
| NGF: nerve growth factor added to the medium as positive control for PC12 differentiation | neurite development due to differentiation is observed | – | – |
| COC(=O)[C@@]1(O)C[C@H]2O[C@]1(C)n1c3ccccc3c3c4c(c5c6ccccc6n2c5c31)C(=O)NC4 [K-252a] | – | strong inhibition of the PC12 cell differentiation | decreases |
